Assay results: a melting point compilation (Tetko et al.; mined from patent text by program, amines drawn as free bases though some values may be those of a salt)

| melting point [°C] | Compound |
| --- | --- |
| 126 to 129 | COC(=O)N1CCC(C(C(N)=O)(c2ccc(F)cc2)c2ccc(F)cc2)CC1 |
| 164 to 165 | COc1ccc2c(c1)OCC(c1ccc(F)cc1)C2c1ccc(O)cc1 (configuration not stated) |
| 59 to 60 | OCc1ccc(O)c(CO)c1CNCCCCCCOCCCCCc1ccco1 |
| 164 to 165 | O=C(Nc1ccccc1)c1cccc(Nc2cc(Cl)cc(Cl)c2)c1 |
| 180 to 182 | CCOC(=O)c1nn2c(-c3ccc(OC)cc3)nnc2c2ccccc12 |
| 189 | CCNC(=O)N1c2ccccc2-c2noc3c2C1CCC3 (configuration not stated) |
| 69 to 70 | OCCNC(c1ccccc1)c1ccccc1 |
| 156 to 159 | N#Cc1ccc(N(CCCCOc2ccc(O)cc2)n2cnnc2)cc1 |
| 168 to 169 | Cc1ccc(Oc2ccccc2-n2cc(C(=O)O)nn2)c(O)c1 |
| 124 to 125 | O=C(c1ccc(Cl)c(Cl)c1)N1CCCC(c2cccs2)=N1 |
| 176 to 177 | Cc1sc2c(Br)c3ccccc3c(-c3cc(Br)c(O[C@@H](CCc4ccccc4)C(=O)O)c(Br)c3)c2c1C |
| 164 to 167 | CN1Cc2ccccc2C(=O)c2cc(CC(=O)O)cc(Br)c21 |
| 161 to 162 | CCOc1ccc(-c2nc(-c3ccc(O)c(C(=O)O)n3)cs2)cc1OCC |
| 186 to 187 | O=C(O)CSCc1nccc2ccccc12 |
| 186 to 189 | O=Cc1c2ccccc2c(C=O)c2c(Cl)cccc12 |
| 172 | CCOC(=O)N(N)C(=O)c1cc(Cl)ccc1O |
| 183 to 184 | COc1cccc(-n2c(=O)c3c(c4cccnc42)OC(COC(C)=O)C3)c1 (configuration not stated) |
| 169 to 170 | O=C(NC(=O)c1ccccc1Cl)Nc1ccc(-n2cccc2)c(Cl)c1 |
| 79 to 81 | COC(=O)CC[C@H](NC(=O)CCCCC=Cc1cnc2nc(NC(=O)C(C)(C)C)nc(O)c2c1)C(=O)OC |
| 111 to 112 | CCOCc1nc2c(N)nc3cccnc3c2n1CCCON=C1CCN(C)CC1 |
| 74 to 77 | COC1=NS(=O)(=O)N(C)C(OCCc2ccccc2)=N1 |
| 192 to 193 | CNC(=O)c1cccc(NC(=O)COc2cccc(Cl)c2Cl)c1 |
| 142 to 143 | CC(C)(C)COc1cccc(C[C@@H](NC(=O)c2cccc3c(Cl)cccc23)[C@@H](O)c2cccc(Cl)c2)c1 (racemic) |
| 262 to 268 | Oc1ccc2oc(-c3ccc(O)c(F)c3)nc2c1 |
| 233 to 237 | O=C(O)COc1ccc2c(-c3ccc(F)cc3)noc2c1Cl |
| 189 to 190 | COCCNC(=O)Cc1c(-c2ccc(C)cc2)nc2[nH]c3ccccc3n12 |
| 124 to 125 | CCOC(=O)CSc1cccc(-c2nc(=O)c3ccccc3s2)n1 |

Further lines, the molecule ahead of its results:

| Compound | melting point [°C] |
| --- | --- |
| CN(c1cccc2cc(C(N)=O)[nH]c12)S(=O)(=O)c1cccs1 | 244 to 245 |
| CSCc1ccc2ncnc(Nc3cccc(C)c3)c2c1 | 134 to 136 |
| O=[N+]([O-])c1cccnc1NCc1ccccn1 | 114 |
| O=C(Nc1ccnn1-c1c(Cl)cc(C(F)(F)F)c(Cl)c1Cl)C(Cl)Cl | 156 to 161 |
| COc1cc(C)c(C)cc1OC | 41 to 42 |
| CC(C)(C)OC(=O)[C@@H](CCc1ccc([N+](=O)[O-])cc1)OS(=O)(=O)c1ccc([N+](=O)[O-])cc1 | 97 to 98 |
| CCOC(COC1CC2C3CCC4=CC(=O)C=CC4(C)C3(F)C(O)CC2(C)C1(O)C(=O)CCl)OCC (configuration not stated) | 200 to 202 |
| CCCC=C1SC(=S)N(N=c2sc3ccccc3s2)C1=O | 236 to 238 |
| O=C(NC1CCCCC1)NS(=O)(=O)c1ccc(CCNC(=O)N2CC3CCCCC3C2=O)cc1 (configuration not stated) | 139 to 140 |
| O=C(c1ccc(Cl)cc1Cl)N1CCc2cc(S(=O)(=O)N3CCN(c4cccc(Cl)c4)CC3)ccc21 | 184 |
| Cc1c(C2=CCC(c3cccc(F)c3)(N(C)C)CC2)[nH]c2ccccc12 (configuration not stated) | 157 to 163 |
| COCCCN(C(=O)N(CCCl)N=O)C1(O)COC(OCC(C)C)C(O)C1O (configuration not stated) | 67 to 69 |
| COc1cc(C)c(C(=O)c2c(C(F)(F)F)ccnc2OC)cc1OC | 125 to 127 |
| O=C(OCc1cccc(Cl)c1)c1ncn2c1[C@@H]1CCCN1C(=O)c1c(Cl)cccc1-2 | 114 to 116 |
| CC1(C)OCCC2N1C(=O)C2(Sc1ccccc1)C1(O)CCSCC1 (configuration not stated) | 191 to 192 |
| CCn1cc(C(=O)O)c(=O)c2cc(F)c(N3CCN(c4ccccc4OC)CC3)c(OC(F)F)c21 | 219 to 222 |
| CC(C)(CNc1c(C(N)=O)cnn2cccc12)N1CCOCC1 | 179 |
| Cc1ccc(S(=O)(=O)CS(C)(=O)=O)cc1 | 164 to 165 |
| Fc1cccc2nc(S)sc12 | 193 |
| COc1ccc(C(CN(C)C)C2CCCCC2O)cc1 (configuration not stated) | 77 to 79 |
| CCOC(=O)c1cc2oc3c(n2n1)CCCC3 | 55 to 57 |
| CC(C)(Cc1ccccc1)C(NC(=O)c1cccc(Cl)c1)Nc1c(Nc2cccnc2)c(=O)c1=O (single isomer, unassigned; (-)) | 178 to 179 |
| Cc1cc(-c2cc(C(F)(F)F)n3cnc(C#N)c3n2)ccc1C(F)(F)F | 217 |

| Compound | melting point [°C] |
| --- | --- |
| Cc1nc(Cl)c(C#N)c(C)c1-c1ccccc1 | 118 to 123 |
| CCS(=O)(=O)C(F)(F)C(O)(Cn1cncn1)c1ccc(F)cc1F (configuration not stated) | 117 to 118 |
| Cc1cc(C)c(-n2c(C)c(C)c3c(C#N)nc(C)nc32)c(C)c1 | 188 to 190 |
| CSC(=S)C1(c2cccc(C)n2)CCCS1 (configuration not stated) | 80 |
| N#Cc1c(-c2cccc(F)c2)c(Cl)n2c1CNCC2 | 104 to 106 |
| COc1cccc(-c2nc(-c3ccccc3)c3ncc(Cl)cc3n2)c1 | 112 to 113 |
| c1ccc(C2NCCOC2c2ccccc2)cc1 (configuration not stated) | 70 to 72 |
| Fc1ccc(-n2ccc3cc(-c4cccnc4)ccc32)cc1 | 108 to 110 |
| Nc1nc(Sc2ccc(F)cc2)cc(-c2ccccc2)n1 | 218 to 220 |
| O=C(c1ccc(-n2ccnc2)cc1)N1Cc2cccn2Cc2ccccc21 | 171 to 172 |
| CC(C)(C)OC(=O)N[C@@H](CC(N)=O)C(=O)N1CCN(Cc2ccccc2)CC1 | 98 to 100 |
| CS(=O)(=O)Nn1c(=O)[nH]c2cc([N+](=O)[O-])c(-n3cnc(CO)c3)cc2c1=O | > 300 |
| O=C(c1ccccc1)C1(c2ccccc2)COCO1 (configuration not stated) | 66 to 66.5 |
| O=C(c1ccn2c1CSC2c1cccnc1)c1cn(S(=O)(=O)c2ccccc2)c2cc(-c3ccc(F)cc3)ccc12 (configuration not stated) | 115 to 116 |
| COc1cc(C(C)(C)O)c(OCc2ccccc2)cc1N1CCN(Cc2ccccc2)CC1 | 94 to 96 |
| Cc1nn(-c2ccc(C(F)(F)F)cn2)cc1COc1cc(C=O)n(C)n1 | 130 to 131 |
| CC1=C(C#N)C(c2cccc([N+](=O)[O-])c2)C2=C(CCCC2=O)N1 (configuration not stated) | 214 to 216 |
| CCOC(=O)c1cn(C)nc1C(F)(F)F | 61.5 to 63.1 |
| Cc1cccc(C)c1NC(=O)/C=C1\SC(C)C(=O)N1C (configuration not stated) | 220 to 222 |
| O=[N+]([O-])c1cnc2ccc(SC(F)F)cc2c1-c1ccccc1 | 101 to 103 |
| C=C1CC2C(CCC3(C)C2CCC3(OC(C)=O)C(=O)COC(C)=O)C2(C)CCC(=O)C=C12 (configuration not stated) | 227 to 228 |
| O=S1(=O)N(CCCN2CCN(c3ccc(F)cc3)CC2)c2cccc3c2N1CCC3 | 98 |
